Measurements taken from the CheMixHub viscosity set.
± gives the uncertainty stated by the source.

Assay: xn = mol fraction of the nth substance listed

COC(=O)OC + CO
viscosity (293.15 K, 101 kPa, x1 = 0.0381): 0.5792 ± 0.0052 mPa·s | viscosity (293.15 K, 101 kPa, x1 = 0.0818): 0.5612 ± 0.0051 mPa·s | viscosity (293.15 K, 101 kPa, x1 = 0.1346): 0.5507 ± 0.005 mPa·s | viscosity (293.15 K, 101 kPa, x1 = 0.1927): 0.5478 ± 0.005 mPa·s | viscosity (293.15 K, 101 kPa, x1 = 0.2626): 0.5418 ± 0.0049 mPa·s | viscosity (293.15 K, 101 kPa, x1 = 0.348): 0.536 ± 0.0048 mPa·s | viscosity (293.15 K, 101 kPa, x1 = 0.4533): 0.5379 ± 0.0048 mPa·s | viscosity (293.15 K, 101 kPa, x1 = 0.5871): 0.548 ± 0.0049 mPa·s | viscosity (293.15 K, 101 kPa, x1 = 0.7618): 0.564 ± 0.005 mPa·s | viscosity (293.15 K, 101.3 kPa, x1 = 0.0537): 0.567 ± 0.031 mPa·s | viscosity (293.15 K, 101.3 kPa, x1 = 0.0996): 0.551 ± 0.03 mPa·s | viscosity (293.15 K, 101.3 kPa, x1 = 0.2058): 0.536 ± 0.029 mPa·s | viscosity (293.15 K, 101.3 kPa, x1 = 0.3135): 0.533 ± 0.029 mPa·s | viscosity (293.15 K, 101.3 kPa, x1 = 0.41): 0.535 ± 0.029 mPa·s | viscosity (293.15 K, 101.3 kPa, x1 = 0.5086): 0.54 ± 0.03 mPa·s | viscosity (293.15 K, 101.3 kPa, x1 = 0.6104): 0.545 ± 0.03 mPa·s | viscosity (293.15 K, 101.3 kPa, x1 = 0.7229): 0.554 ± 0.03 mPa·s | viscosity (293.15 K, 101.3 kPa, x1 = 0.8338): 0.57 ± 0.031 mPa·s | viscosity (293.15 K, 101.3 kPa, x1 = 0.9067): 0.586 ± 0.032 mPa·s | viscosity (293.15 K, 101.3 kPa, x1 = 0.9509): 0.6 ± 0.032 mPa·s | viscosity (298.15 K, 101 kPa, x1 = 0.0381): 0.5373 ± 0.0049 mPa·s | viscosity (298.15 K, 101 kPa, x1 = 0.0818): 0.5292 ± 0.0049 mPa·s | viscosity (298.15 K, 101 kPa, x1 = 0.1346): 0.5164 ± 0.0047 mPa·s | viscosity (298.15 K, 101 kPa, x1 = 0.1927): 0.5119 ± 0.0047 mPa·s | viscosity (298.15 K, 101 kPa, x1 = 0.2626): 0.5061 ± 0.0046 mPa·s | viscosity (298.15 K, 101 kPa, x1 = 0.348): 0.503 ± 0.0046 mPa·s | viscosity (298.15 K, 101 kPa, x1 = 0.4533): 0.5058 ± 0.0046 mPa·s | viscosity (298.15 K, 101 kPa, x1 = 0.5871): 0.5227 ± 0.0047 mPa·s | viscosity (298.15 K, 101 kPa, x1 = 0.7618): 0.5374 ± 0.0048 mPa·s | viscosity (298.15 K, 101.3 kPa, x1 = 0.0506): 0.531 ± 0.029 mPa·s | viscosity (298.15 K, 101.3 kPa, x1 = 0.1042): 0.518 ± 0.029 mPa·s | viscosity (298.15 K, 101.3 kPa, x1 = 0.2079): 0.502 ± 0.028 mPa·s | viscosity (298.15 K, 101.3 kPa, x1 = 0.3011): 0.498 ± 0.028 mPa·s | viscosity (298.15 K, 101.3 kPa, x1 = 0.3963): 0.498 ± 0.028 mPa·s | viscosity (298.15 K, 101.3 kPa, x1 = 0.4931): 0.504 ± 0.028 mPa·s | viscosity (298.15 K, 101.3 kPa, x1 = 0.589): 0.509 ± 0.028 mPa·s | viscosity (298.15 K, 101.3 kPa, x1 = 0.6927): 0.517 ± 0.029 mPa·s | viscosity (298.15 K, 101.3 kPa, x1 = 0.8137): 0.53 ± 0.029 mPa·s | viscosity (298.15 K, 101.3 kPa, x1 = 0.8997): 0.548 ± 0.03 mPa·s | viscosity (298.15 K, 101.3 kPa, x1 = 0.9575): 0.566 ± 0.031 mPa·s | viscosity (298.15 K, 101.33 kPa, x1 = 0.0989): 0.482 ± 0.014 mPa·s | viscosity (298.15 K, 101.33 kPa, x1 = 0.2009): 0.462 ± 0.013 mPa·s | viscosity (298.15 K, 101.33 kPa, x1 = 0.3008): 0.458 ± 0.013 mPa·s | viscosity (298.15 K, 101.33 kPa, x1 = 0.4008): 0.457 ± 0.013 mPa·s | viscosity (298.15 K, 101.33 kPa, x1 = 0.5): 0.462 ± 0.013 mPa·s | viscosity (298.15 K, 101.33 kPa, x1 = 0.6002): 0.468 ± 0.014 mPa·s | viscosity (298.15 K, 101.33 kPa, x1 = 0.7016): 0.474 ± 0.014 mPa·s | viscosity (298.15 K, 101.33 kPa, x1 = 0.8015): 0.496 ± 0.015 mPa·s | viscosity (298.15 K, 101.33 kPa, x1 = 0.9028): 0.511 ± 0.015 mPa·s | viscosity (303.15 K, 101 kPa, x1 = 0.0381): 0.5011 ± 0.0047 mPa·s | viscosity (303.15 K, 101 kPa, x1 = 0.0818): 0.4896 ± 0.0046 mPa·s | viscosity (303.15 K, 101 kPa, x1 = 0.1346): 0.4814 ± 0.0045 mPa·s | viscosity (303.15 K, 101 kPa, x1 = 0.1927): 0.479 ± 0.0045 mPa·s | viscosity (303.15 K, 101 kPa, x1 = 0.2626): 0.4723 ± 0.0044 mPa·s | viscosity (303.15 K, 101 kPa, x1 = 0.348): 0.474 ± 0.0044 mPa·s | viscosity (303.15 K, 101 kPa, x1 = 0.4533): 0.473 ± 0.0044 mPa·s | viscosity (303.15 K, 101 kPa, x1 = 0.5871): 0.4884 ± 0.0045 mPa·s | viscosity (303.15 K, 101 kPa, x1 = 0.7618): 0.5087 ± 0.0046 mPa·s | viscosity (303.15 K, 101.3 kPa, x1 = 0.026): 0.503 ± 0.028 mPa·s | viscosity (303.15 K, 101.3 kPa, x1 = 0.0707): 0.489 ± 0.027 mPa·s | viscosity (303.15 K, 101.3 kPa, x1 = 0.1832): 0.469 ± 0.027 mPa·s | viscosity (303.15 K, 101.3 kPa, x1 = 0.2839): 0.467 ± 0.026 mPa·s | viscosity (303.15 K, 101.3 kPa, x1 = 0.3823): 0.468 ± 0.026 mPa·s | viscosity (303.15 K, 101.3 kPa, x1 = 0.4869): 0.472 ± 0.027 mPa·s | viscosity (303.15 K, 101.3 kPa, x1 = 0.5847): 0.475 ± 0.027 mPa·s | viscosity (303.15 K, 101.33 kPa, x1 = 0.0989): 0.443 ± 0.013 mPa·s | viscosity (303.15 K, 101.33 kPa, x1 = 0.2009): 0.432 ± 0.013 mPa·s | viscosity (303.15 K, 101.33 kPa, x1 = 0.3008): 0.427 ± 0.013 mPa·s | viscosity (303.15 K, 101.33 kPa, x1 = 0.4008): 0.429 ± 0.013 mPa·s | viscosity (303.15 K, 101.33 kPa, x1 = 0.6002): 0.439 ± 0.013 mPa·s | viscosity (303.15 K, 101.33 kPa, x1 = 0.7016): 0.447 ± 0.013 mPa·s | viscosity (303.15 K, 101.33 kPa, x1 = 0.8015): 0.459 ± 0.014 mPa·s | viscosity (303.15 K, 101.33 kPa, x1 = 0.9028): 0.48 ± 0.014 mPa·s | viscosity (308.15 K, 101.33 kPa, x1 = 0.0989): 0.415 ± 0.012 mPa·s | viscosity (308.15 K, 101.33 kPa, x1 = 0.2009): 0.406 ± 0.012 mPa·s | viscosity (308.15 K, 101.33 kPa, x1 = 0.3008): 0.404 ± 0.012 mPa·s | viscosity (308.15 K, 101.33 kPa, x1 = 0.4008): 0.403 ± 0.012 mPa·s | viscosity (308.15 K, 101.33 kPa, x1 = 0.5): 0.406 ± 0.012 mPa·s | viscosity (308.15 K, 101.33 kPa, x1 = 0.6002): 0.421 ± 0.013 mPa·s | viscosity (308.15 K, 101.33 kPa, x1 = 0.7016): 0.419 ± 0.013 mPa·s | viscosity (308.15 K, 101.33 kPa, x1 = 0.8015): 0.433 ± 0.013 mPa·s | viscosity (308.15 K, 101.33 kPa, x1 = 0.9028): 0.456 ± 0.014 mPa·s | viscosity (313.15 K, 101 kPa, x1 = 0.0381): 0.4382 ± 0.0042 mPa·s | viscosity (313.15 K, 101 kPa, x1 = 0.0818): 0.4297 ± 0.0041 mPa·s | viscosity (313.15 K, 101 kPa, x1 = 0.1346): 0.4193 ± 0.004 mPa·s | viscosity (313.15 K, 101 kPa, x1 = 0.1927): 0.4192 ± 0.004 mPa·s | viscosity (313.15 K, 101 kPa, x1 = 0.2626): 0.4166 ± 0.004 mPa·s | viscosity (313.15 K, 101 kPa, x1 = 0.348): 0.4177 ± 0.004 mPa·s | viscosity (313.15 K, 101 kPa, x1 = 0.4533): 0.4181 ± 0.004 mPa·s | viscosity (313.15 K, 101 kPa, x1 = 0.5871): 0.4314 ± 0.0041 mPa·s | viscosity (313.15 K, 101 kPa, x1 = 0.7618): 0.4469 ± 0.0041 mPa·s | viscosity (323.15 K, 101 kPa, x1 = 0.0381): 0.3851 ± 0.0038 mPa·s | viscosity (323.15 K, 101 kPa, x1 = 0.0818): 0.3724 ± 0.0037 mPa·s | viscosity (323.15 K, 101 kPa, x1 = 0.1346): 0.3704 ± 0.0037 mPa·s | viscosity (323.15 K, 101 kPa, x1 = 0.1927): 0.3692 ± 0.0037 mPa·s | viscosity (323.15 K, 101 kPa, x1 = 0.2626): 0.3685 ± 0.0036 mPa·s | viscosity (323.15 K, 101 kPa, x1 = 0.348): 0.3693 ± 0.0036 mPa·s | viscosity (323.15 K, 101 kPa, x1 = 0.4533): 0.3745 ± 0.0037 mPa·s | viscosity (323.15 K, 101 kPa, x1 = 0.5871): 0.3867 ± 0.0037 mPa·s | viscosity (323.15 K, 101 kPa, x1 = 0.7618): 0.3997 ± 0.0038 mPa·s
